Calls of active or inactive are those of the source. No rule for the calls is given here.
molecular target: CCHFV viral ovarian tumor domain protease (vOTU, L protein); test: CCHFV vOTU protease inhibitor potency, dose response, biochemical, fluorescence, Pep-AMC substrate (AID 743296); conditions: recombinant CCHFV vOTU

SMILES | IC50
COc1ccccc1NC(=O)COC(=O)c1ccc([N+](=O)[O-])s1 | 7.82 µM
NS(=O)(=O)c1ccc(NC(=O)COC(=O)c2ccc([N+](=O)[O-])s2)cc1 | 8.1 µM
CCc1cc[n+](C2=C(NS(=O)(=O)c3cccs3)C(=O)c3ccccc3C2=O)cc1 | 3.5 µM
COc1cc(C(=O)c2nccc3cc(OC)c(OC)cc23)c([N+](=O)[O-])cc1OC | 1.42 µM
Cc1ccccc1-c1cc2c(nn1)-c1ccccc1C2=O | 0.545 µM
CC1(C)C=C2C(=NN(c3ccccc3)C(N)=C2C#N)CO1 | 1.54 µM
COc1cc(NCCCCCCN)c2ncccc2c1OC | inactive
O=C(COC(=O)c1ccc([N+](=O)[O-])s1)Nc1ccccc1 | 8.21 µM
O=C1OC(Nc2cc(Br)cc3cccnc23)c2ccccc21 (configuration not stated) | > 115 µM (inactive)
O=C(NC1=CC(=O)c2ccccc2C1=O)c1ccccc1 | 4.64 µM
O=C(c1ccco1)[C@@H]1[C@@H]2C(=O)N(c3ccc(Br)cc3)C(=O)[C@@H]2C2c3ccccc3C=CN21 (some centres not stated) | 5.18 µM
O=C1Cc2ccccc2C(=O)N1 | 0.419 µM
CCC(CNc1cc(OC)cc2cccnc12)NC1CCCCC1 (configuration not stated) | 5.86 µM
NS(=O)(=O)c1ccc(NC2=CC(=O)C(=O)c3ccccc32)cc1 | 4.22 µM
O=C(COC(=O)c1ccc([N+](=O)[O-])s1)NCc1ccc(F)cc1 | 9.46 µM
COc1cc(Br)c(C(=O)c2nccc3cc(OC)c(OC)cc23)cc1OC | 0.276 µM
CN(C1=C(NC(=O)c2ccccc2)C(=O)c2ccccc2C1=O)C1CCS(=O)(=O)C1 (configuration not stated) | 2.67 µM
CC1CCCC(NC(=O)COC(=O)c2ccc([N+](=O)[O-])s2)C1C (configuration not stated) | 9.29 µM
Cc1cnc(C2OCCO2)c2cccc(N)c12 | inactive
O=C(COC(=O)c1ccc([N+](=O)[O-])s1)Nc1ncc(C(F)(F)F)cc1Cl | inactive
COC1=C(N)C(=O)c2nc(C)ccc2C1=O | 0.824 µM
COc1cc(NC(=O)COC(=O)c2ccc([N+](=O)[O-])s2)cc(OC)c1OC | 8.38 µM
COC(CNC(=O)c1ccc2c3c(onc13)-c1ccccc1C2=O)OC | 7.11 µM
Cc1c(Cl)cnc(NC(=O)COC(=O)c2ccc([N+](=O)[O-])s2)c1Cl | inactive
CCOC(=O)N=Nc1c2ccccc2c2nc3no[nH]c3nc12 | 2.54 µM
O=C1Cc2ccccc2C(=O)N1Cc1ccccc1 | 1.19 µM

SMILES | IC50
NC1=C(Cl)C(=O)c2ccc(S(N)(=O)=O)cc2C1=O | 0.122 µM
O=S(=O)(Nc1cc2nc3ccccc3nc2n1Cc1ccccc1)c1ccc(Cl)cc1 | 4.14 µM
O=C(OCc1nnc(-c2ccccc2)o1)c1ccc([N+](=O)[O-])s1 | 6.91 µM
O=C(O)CSc1cc(NS(=O)(=O)c2ccc(Br)cc2)c2ccccc2c1O | 1.66 µM
Cc1ccc(NC2=CC(=O)C(=O)c3ccccc32)cc1 | 5.14 µM
Nc1cc2c(cc1Br)[nH]c(=O)c1ccccc12 | inactive
O=C(/C=C/c1ccc(O)cc1)c1ccc(NC2=C(N3CCCCC3)C(=O)c3ccccc3C2=O)cc1 | 4.19 µM
CCOC(=O)C1=C(COC(=O)c2ccc([N+](=O)[O-])s2)NC(=O)NC1C (configuration not stated) | 7.97 µM
COc1ccc2noc3c2c1C(=O)c1ccccc1-3 | 8.11 µM
O=C(NC1=C(NC2CCS(=O)(=O)C2)C(=O)c2ccccc2C1=O)c1ccccc1 (configuration not stated) | 2.79 µM
S=C(Nc1ccc(Cl)cc1)Nc1cccc2cnccc12 | inactive
Cc1ccc2c(c1C)-c1c(ccc(C)c1C)C(=O)C2=O | 7.46 µM
CC(=O)c1ccc(NC(=S)Nc2cccc3cnccc23)cc1 | > 115 µM (inactive)
O=C(COC(=O)c1ccc([N+](=O)[O-])s1)Nc1ccc(F)cc1 | 7.27 µM
O=C(O)CSc1cc(NS(=O)(=O)c2cccc([N+](=O)[O-])c2)c2ccccc2c1O | 1.95 µM
COc1cc(NCCCC(C)N)c2ncccc2c1 (configuration not stated) | > 115 µM (inactive)
Cn1nc(-c2ccccn2)nc2c(=O)n(C)c(=O)nc1-2 | 0.251 µM
O=C1Cc2ccccc2C(=O)N1CCc1ccccc1 | 0.901 µM
CC1COCC(C)N1C1=C(Cl)C(=O)c2ccccc2C1=O (configuration not stated) | 7.43 µM
CCOC(=O)c1c2c(n(Cc3ccccc3)c1C)C(=O)C(=O)c1ccccc1-2 | 2.12 µM
O=C1C=C(Nc2ccccc2)c2ccccc2C1=O | 6.64 µM
CC(C)=CCC1=C(OCC(=O)O)C(=O)c2ccccc2C1=O | 3.23 µM
O=S(=O)(Nc1cc(Sc2ncn[nH]2)c(O)c2ccccc12)c1ccccc1 | 0.458 µM
COc1cc2c(cc1O)[C@@H]1Cc3ccc(OC)c(O)c3CN1CC2 | inactive
O=C(O)CSc1cc(NS(=O)(=O)c2ccc(Cl)cc2)c2ccccc2c1O | 3.4 µM
Cc1ccc(N2C(=O)[C@@H]3[C@H](C2=O)C2c4ccccc4C=CN2[C@@H]3C(=O)c2ccco2)cc1 (some centres not stated) | 6.53 µM
